From ChEMBL document CHEMBL5346941, “Design, synthesis and evaluation of novel monoamine oxidase B (MAO-B) inhibitors with improved pharmacokinetic properties for Parkinson's disease” (Eur J Med Chem, 2023)
pIC50: −log10 of the molar value.

How the values were obtained:
[1] = target: T1, Amine oxidase [flavin-containing] A (Homo sapiens, UniProt P21397); test: Inhibition of recombinant human MAO-A expressed in Sf9 cells using […] as substrate preincubated for 15 mins followed by substrate addition and measured after 60 mins by luciferin based luminescence analysis
T1 sequence (P21397 whole entry): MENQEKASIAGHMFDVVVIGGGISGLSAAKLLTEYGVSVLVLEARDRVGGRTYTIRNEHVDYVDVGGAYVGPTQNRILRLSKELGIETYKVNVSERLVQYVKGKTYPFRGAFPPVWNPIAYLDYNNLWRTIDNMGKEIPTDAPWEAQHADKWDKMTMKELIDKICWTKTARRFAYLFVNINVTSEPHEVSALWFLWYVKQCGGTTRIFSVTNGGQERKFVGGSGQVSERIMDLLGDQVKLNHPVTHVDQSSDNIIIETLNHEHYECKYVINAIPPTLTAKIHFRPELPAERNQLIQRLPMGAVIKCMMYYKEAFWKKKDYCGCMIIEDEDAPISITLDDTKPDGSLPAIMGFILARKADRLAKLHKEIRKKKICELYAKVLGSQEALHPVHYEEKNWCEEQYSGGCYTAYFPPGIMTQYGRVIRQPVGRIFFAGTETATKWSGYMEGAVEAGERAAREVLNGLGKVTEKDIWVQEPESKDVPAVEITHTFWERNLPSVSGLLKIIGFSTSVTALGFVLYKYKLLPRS

[2] = target: T2, Amine oxidase [flavin-containing] B (Homo sapiens, UniProt P27338); test: Inhibition of recombinant human MAO-B expressed in Sf9 cells using p-tyramine as substrate preincubated for 15 mins followed by substrate addition and measured after 60 mins by luciferin based luminescence analysis
T2 sequence (P27338 whole entry): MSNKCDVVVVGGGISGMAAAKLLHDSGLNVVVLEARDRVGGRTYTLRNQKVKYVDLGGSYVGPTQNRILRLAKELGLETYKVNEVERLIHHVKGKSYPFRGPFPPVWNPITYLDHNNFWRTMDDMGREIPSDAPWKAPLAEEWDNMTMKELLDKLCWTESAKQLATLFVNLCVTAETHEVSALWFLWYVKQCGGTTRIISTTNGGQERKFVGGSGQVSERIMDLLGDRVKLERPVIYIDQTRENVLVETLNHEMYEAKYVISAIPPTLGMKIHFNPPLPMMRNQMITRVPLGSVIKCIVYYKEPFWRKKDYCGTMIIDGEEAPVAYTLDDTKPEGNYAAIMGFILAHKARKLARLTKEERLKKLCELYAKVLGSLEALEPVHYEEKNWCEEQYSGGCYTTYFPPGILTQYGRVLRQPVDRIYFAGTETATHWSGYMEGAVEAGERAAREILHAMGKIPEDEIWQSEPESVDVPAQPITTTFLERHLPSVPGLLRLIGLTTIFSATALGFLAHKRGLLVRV

[3] = Cmax in fasted Sprague-Dawley rat at 5 mg/kg, IG measured for 24 hrs; format: ADME, organism-based; set-up: dose 5 mg/kg, time 24 hrs, route ig; details: in vivo, po
[4] = Elimination half life in fasted Sprague-Dawley rat at 1 mg/kg, iv measured for 24 hrs; format: ADME, organism-based; details: in vivo, read-out: beta t1/2 (converted)
[5] = Bioavailability in fasted Sprague-Dawley rat at 5 mg/kg, IG measured for 24 hrs; format: ADME, organism-based; details: in vivo, po
[6] = AUC (0 to t) in fasted Sprague-Dawley rat at 5 mg/kg, IG measured for 24 hrs; format: ADME, organism-based; set-up: dose 5 mg/kg, time 24 hrs, route ig; details: in vivo, po
[7] = Elimination half life in fasted Sprague-Dawley rat at 5 mg/kg, IG measured for 24 hrs; format: ADME, organism-based; details: in vivo, po, read-out: beta t1/2 (converted)
[8] = Clearance in fasted Sprague-Dawley rat at 1 mg/kg, iv measured for 24 hrs; format: ADME, organism-based; details: in vivo
[9] = AUC (0 to t) in fasted Sprague-Dawley rat at 1 mg/kg, iv measured for 24 hrs; format: ADME, organism-based; set-up: dose 1 mg/kg, time 24 hrs, route iv; details: in vivo
[10] = Cmax in fasted Sprague-Dawley rat at 1 mg/kg, iv measured for 24 hrs; format: ADME, organism-based; set-up: dose 1 mg/kg, time 24 hrs, route iv; details: Sprague-Dawley, in vivo, read-out: Cmax
[11] = Volume of distribution at steady state in fasted Sprague-Dawley rat at 1 mg/kg, iv measured for 24 hrs; format: ADME, organism-based; details: in vivo, read-out: Vdss

SMILES	pIC50 [1]	pIC50 [2]	Cmax [3] [ng/mL]	half-life [4] [min]	bioavailability [5] [%]	AUC(0-t) at 24 h [6] [ng·h/mL]	half-life [7] [min]	clearance [8] [mL/min/kg]	AUC(0-t) at 24 h [9] [ng·h/mL]	Cmax [10] [ng/mL]	Vd [11] [L/kg]
C[C@H](NCc1ccc2oc(-c3ccccc3F)cc2c1)C(N)=O	5.21	5.30									
COc1ccc(-c2cc3cc(CN4CC[C@H]4C(N)=O)ccc3o2)cc1	< 5.00	5.13									
COc1ccccc1-c1cc2cc(CN3CC[C@H]3C(N)=O)ccc2o1	< 5.00	5.71									
NC(=O)[C@@H]1CCN1Cc1ccc2oc(-c3ccc(F)cc3)cc2c1	< 5.00	7.42	161	28.9	80.9	623	235	102	161	213	8.53
NC(=O)[C@@H]1C[C@H](F)CN1Cc1ccc2oc(-c3cccc(F)c3)cc2c1	5.31	7.26	409	41.2	126	1500	133	66.4	250	237	4.12
COc1cccc(-c2cc3cc(CN[C@@H](C)C(N)=O)ccc3o2)c1	5.23	5.34									
NC(=O)[C@@H]1CCN1Cc1ccc2oc(-c3cccc(F)c3)cc2c1	5.31	7.07	185	47	56.3	527	63.6	87.9	188	204	4.96
C[C@H](NCc1ccc2oc(-c3cccc(F)c3)cc2c1)C(N)=O	5.31	5.65									
